From ChEMBL document CHEMBL5550160, “Leveraging a rationally designed veliparib-based anilide eliciting anti-leukemic effects for the design of pH-responsive polymer nanoformulation” (Eur J Med Chem, 2024)
pIC50: −log10 of the molar value. Calls of active or inactive are those of the source. The calls are words filed in the database; no cut-off is given here.

Key:
[1] = biological target: Histone deacetylase 4 (Homo sapiens) (UniProt P56524); assay: Inhibition of HDAC4 (unknown origin) assessed as residual activity at 1.52 x 10^-9M (reference value: 98.90%); conditions: dose 1.52 10^-9M
Histone deacetylase 1 [2] = biological target: T1, Histone deacetylase 1 (Homo sapiens, UniProt Q13547); assay: Inhibition of HDAC1 (unknown origin) using p53 residues 379 to 382 [RHKK(Ac)] as fluorogenic substrate assessed as residual activity at 4.57 x 10^-9M (reference value: 98.06%); conditions: dose 4.57 10^-9M
[3] = biological target: Histone deacetylase 5 (Homo sapiens) (UniProt Q9UQL6); assay: Inhibition of HDAC5 (unknown origin) assessed as residual activity at 1 x 10^-5M (reference value: 100%); conditions: dose 1.0 10^-5M
[4] = biological target: T2, Histone deacetylase 7 (Homo sapiens) (UniProt Q8WUI4); assay: Inhibition of HDAC7 (unknown origin) assessed as residual activity at 1.52 x 10^-9M (reference value: 102.66%); conditions: dose 1.52 10^-9M
T2 sequence (whole entry): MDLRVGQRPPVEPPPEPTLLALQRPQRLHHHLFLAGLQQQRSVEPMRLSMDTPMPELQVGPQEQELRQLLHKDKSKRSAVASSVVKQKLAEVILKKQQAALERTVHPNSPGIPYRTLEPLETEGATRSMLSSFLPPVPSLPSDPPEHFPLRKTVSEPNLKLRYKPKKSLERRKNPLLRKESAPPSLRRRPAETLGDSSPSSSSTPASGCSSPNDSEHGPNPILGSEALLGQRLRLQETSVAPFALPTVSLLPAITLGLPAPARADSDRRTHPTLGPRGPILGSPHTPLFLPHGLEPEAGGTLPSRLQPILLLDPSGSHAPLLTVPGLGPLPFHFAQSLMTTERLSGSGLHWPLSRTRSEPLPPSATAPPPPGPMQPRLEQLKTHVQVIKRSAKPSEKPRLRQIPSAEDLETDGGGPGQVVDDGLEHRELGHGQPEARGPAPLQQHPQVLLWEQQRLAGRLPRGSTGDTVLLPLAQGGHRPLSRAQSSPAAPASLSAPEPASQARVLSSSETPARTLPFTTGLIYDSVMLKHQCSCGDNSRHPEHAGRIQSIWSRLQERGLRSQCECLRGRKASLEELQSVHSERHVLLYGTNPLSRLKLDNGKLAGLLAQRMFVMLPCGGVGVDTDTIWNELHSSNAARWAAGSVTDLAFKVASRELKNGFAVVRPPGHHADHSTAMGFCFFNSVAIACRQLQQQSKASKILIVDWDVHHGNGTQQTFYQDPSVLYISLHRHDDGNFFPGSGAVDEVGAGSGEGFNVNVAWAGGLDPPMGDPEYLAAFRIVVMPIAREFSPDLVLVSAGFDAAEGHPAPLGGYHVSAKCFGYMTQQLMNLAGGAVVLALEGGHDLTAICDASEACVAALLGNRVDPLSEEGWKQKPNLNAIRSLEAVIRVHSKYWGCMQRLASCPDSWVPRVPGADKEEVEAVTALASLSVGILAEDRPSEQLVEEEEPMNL

HL-60 [5] = assay: Downregulation of HDAC2 protein expression in human HL-60 cells by Western blot analysis; format: functional, cell-based; conditions: dose 0.2-5 µM
Histone deacetylase 1 [6] = biological target: T1, Histone deacetylase 1; assay: Inhibition of HDAC1 (unknown origin) using p53 residues 379 to 382 [RHKK(Ac)] as fluorogenic substrate assessed as residual activity at 1 x 10^-5M (reference value: 98.06%); conditions: dose 1.0 10^-5M
[7] = biological target: T3, Polyamine deacetylase HDAC10 (Homo sapiens) (UniProt Q969S8); assay: Inhibition of HDAC10 (unknown origin) assessed as residual activity at 3.33 x 10^-6M (reference value: 101.54%); conditions: dose 3.33 10^-6M
T3 sequence (whole entry): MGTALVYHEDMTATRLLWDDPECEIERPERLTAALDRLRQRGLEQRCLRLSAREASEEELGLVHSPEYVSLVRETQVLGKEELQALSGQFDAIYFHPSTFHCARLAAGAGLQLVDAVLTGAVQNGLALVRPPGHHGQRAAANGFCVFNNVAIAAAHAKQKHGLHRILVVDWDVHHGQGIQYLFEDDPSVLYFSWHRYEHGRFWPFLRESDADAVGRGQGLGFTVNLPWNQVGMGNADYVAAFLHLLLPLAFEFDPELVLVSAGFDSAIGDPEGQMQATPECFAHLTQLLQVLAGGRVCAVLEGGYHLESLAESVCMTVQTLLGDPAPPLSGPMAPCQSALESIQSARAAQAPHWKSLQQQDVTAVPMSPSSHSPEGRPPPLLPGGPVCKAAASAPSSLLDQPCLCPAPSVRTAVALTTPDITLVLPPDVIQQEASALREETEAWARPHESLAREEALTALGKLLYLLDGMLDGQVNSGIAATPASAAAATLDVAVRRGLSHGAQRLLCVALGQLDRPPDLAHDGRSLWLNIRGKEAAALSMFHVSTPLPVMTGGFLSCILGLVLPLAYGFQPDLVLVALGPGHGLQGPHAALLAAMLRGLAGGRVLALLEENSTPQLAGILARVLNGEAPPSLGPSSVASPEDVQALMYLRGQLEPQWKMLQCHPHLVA

HL-60 [8] = assay: Induction of cell cycle arrest in G0/G1 phase in human HL-60 cells assessed as downregulation of AKT protein expression at 0.5 to 1 times IC50 by Western blot analysis; format: functional, cell-based
HL-60 [9] = assay: Induction of apoptosis in human HL-60 cells assessed as cell shrinkage at 0.5 to 1 times IC50 by DAPI staining based microscopic analysis; format: functional
[10] = biological target: Histone deacetylase 9 (Homo sapiens) (UniProt Q9UKV0); assay: Inhibition of HDAC9 (unknown origin) assessed as residual activity at 1.37 x 10^-8M (reference value: 97.55%); conditions: dose 1.37 10^-8M
[11] = biological target: Histone deacetylase 5 (Homo sapiens) (UniProt Q9UQL6); assay: Inhibition of HDAC5 (unknown origin) assessed as residual activity at 4.12 x 10^-8M (reference value: 100%); conditions: dose 4.12 10^-8M
Histone deacetylase 2 [12] = biological target: T4, Histone deacetylase 2 (Homo sapiens, UniProt Q92769); assay: Inhibition of HDAC2 (unknown origin) assessed as residual activity at 5.08 x 10^-10M (reference value: 99.81%); conditions: dose 5.08 10^-10M
Histone deacetylase 2 [13] = biological target: T4, Histone deacetylase 2; assay: Inhibition of HDAC2 (unknown origin)
[14] = biological target: T3, Polyamine deacetylase HDAC10 (Homo sapiens); assay: Inhibition of HDAC10 (unknown origin) assessed as residual activity at 1.23 x 10^-7M (reference value: 101.54%); conditions: dose 1.23 10^-7M
[15] = biological target: Histone deacetylase 5 (Homo sapiens) (UniProt Q9UQL6); assay: Inhibition of HDAC5 (unknown origin) assessed as residual activity at 4.57 x 10^-9M (reference value: 100%); conditions: dose 4.57 10^-9M
[16] = biological target: T2, Histone deacetylase 7 (Homo sapiens); assay: Inhibition of HDAC7 (unknown origin) assessed as residual activity at 3.70 x 10^-7M (reference value: 102.66%); conditions: dose 3.7 10^-7M
HL-60 [17] = assay: Induction of cell cycle arrest in G0/G1 phase in human HL-60 cells assessed as downregulation of cyclin D1 protein expression at 0.5 to 1 times IC50 by Western blot analysis; format: functional, cell-based

Chain of Histone deacetylase 5 (Homo sapiens) (Q9UQL6 whole entry): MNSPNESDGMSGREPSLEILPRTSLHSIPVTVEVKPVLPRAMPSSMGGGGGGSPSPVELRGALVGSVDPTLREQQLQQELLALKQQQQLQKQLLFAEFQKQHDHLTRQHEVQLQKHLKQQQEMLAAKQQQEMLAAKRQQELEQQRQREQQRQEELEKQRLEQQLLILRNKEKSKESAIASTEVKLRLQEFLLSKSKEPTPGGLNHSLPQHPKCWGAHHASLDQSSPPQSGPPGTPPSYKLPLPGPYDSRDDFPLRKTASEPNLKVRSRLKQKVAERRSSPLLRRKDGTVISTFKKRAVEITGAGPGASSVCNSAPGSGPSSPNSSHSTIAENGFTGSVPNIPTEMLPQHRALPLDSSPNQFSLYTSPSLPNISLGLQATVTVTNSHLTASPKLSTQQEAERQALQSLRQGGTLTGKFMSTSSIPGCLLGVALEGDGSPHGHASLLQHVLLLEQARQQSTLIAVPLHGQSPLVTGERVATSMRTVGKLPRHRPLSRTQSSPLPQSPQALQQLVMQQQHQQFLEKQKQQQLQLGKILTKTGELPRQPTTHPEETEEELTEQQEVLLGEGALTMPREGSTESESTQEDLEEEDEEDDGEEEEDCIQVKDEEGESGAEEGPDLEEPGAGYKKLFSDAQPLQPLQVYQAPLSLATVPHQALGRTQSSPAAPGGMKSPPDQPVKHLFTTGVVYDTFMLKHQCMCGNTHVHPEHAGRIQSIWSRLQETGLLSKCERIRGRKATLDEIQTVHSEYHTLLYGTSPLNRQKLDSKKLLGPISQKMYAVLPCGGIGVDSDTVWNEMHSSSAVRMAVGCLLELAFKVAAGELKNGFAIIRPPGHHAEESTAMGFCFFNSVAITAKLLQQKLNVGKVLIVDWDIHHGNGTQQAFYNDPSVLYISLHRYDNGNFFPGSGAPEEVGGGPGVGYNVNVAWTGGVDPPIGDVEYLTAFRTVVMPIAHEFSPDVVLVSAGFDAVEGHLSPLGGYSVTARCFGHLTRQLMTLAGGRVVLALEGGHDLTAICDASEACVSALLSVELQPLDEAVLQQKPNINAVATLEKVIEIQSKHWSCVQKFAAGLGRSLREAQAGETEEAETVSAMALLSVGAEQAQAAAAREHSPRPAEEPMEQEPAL
T1 sequence (Q13547 whole entry, the tested form may be a part): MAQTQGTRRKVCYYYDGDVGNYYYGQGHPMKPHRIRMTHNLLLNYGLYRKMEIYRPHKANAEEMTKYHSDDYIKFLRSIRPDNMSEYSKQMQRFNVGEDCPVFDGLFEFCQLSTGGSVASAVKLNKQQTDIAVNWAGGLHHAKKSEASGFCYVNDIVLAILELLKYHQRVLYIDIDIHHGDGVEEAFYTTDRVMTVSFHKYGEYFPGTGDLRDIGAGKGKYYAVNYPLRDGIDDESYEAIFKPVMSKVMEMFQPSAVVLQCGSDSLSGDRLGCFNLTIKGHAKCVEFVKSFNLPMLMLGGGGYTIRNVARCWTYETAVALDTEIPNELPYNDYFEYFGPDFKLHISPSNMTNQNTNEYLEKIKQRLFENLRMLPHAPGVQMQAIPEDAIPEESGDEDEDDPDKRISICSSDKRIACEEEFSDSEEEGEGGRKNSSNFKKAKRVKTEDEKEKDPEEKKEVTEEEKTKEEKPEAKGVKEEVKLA
T4 sequence (Q92769 whole entry): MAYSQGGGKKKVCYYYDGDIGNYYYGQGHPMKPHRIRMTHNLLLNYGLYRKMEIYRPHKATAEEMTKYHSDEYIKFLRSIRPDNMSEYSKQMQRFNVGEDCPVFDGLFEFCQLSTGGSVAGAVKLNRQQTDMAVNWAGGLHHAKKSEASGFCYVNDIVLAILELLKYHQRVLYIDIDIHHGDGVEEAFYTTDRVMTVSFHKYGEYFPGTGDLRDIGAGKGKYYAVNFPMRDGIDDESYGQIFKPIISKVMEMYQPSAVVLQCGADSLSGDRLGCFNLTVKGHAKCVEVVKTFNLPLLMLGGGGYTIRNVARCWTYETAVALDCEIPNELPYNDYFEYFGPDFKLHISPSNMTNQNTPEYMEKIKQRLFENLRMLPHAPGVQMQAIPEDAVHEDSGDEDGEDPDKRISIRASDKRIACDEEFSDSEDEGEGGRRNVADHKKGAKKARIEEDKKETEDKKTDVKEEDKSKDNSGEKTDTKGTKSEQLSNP
Chain of Histone deacetylase 4 (Homo sapiens) (P56524 whole entry, the tested form may be a part): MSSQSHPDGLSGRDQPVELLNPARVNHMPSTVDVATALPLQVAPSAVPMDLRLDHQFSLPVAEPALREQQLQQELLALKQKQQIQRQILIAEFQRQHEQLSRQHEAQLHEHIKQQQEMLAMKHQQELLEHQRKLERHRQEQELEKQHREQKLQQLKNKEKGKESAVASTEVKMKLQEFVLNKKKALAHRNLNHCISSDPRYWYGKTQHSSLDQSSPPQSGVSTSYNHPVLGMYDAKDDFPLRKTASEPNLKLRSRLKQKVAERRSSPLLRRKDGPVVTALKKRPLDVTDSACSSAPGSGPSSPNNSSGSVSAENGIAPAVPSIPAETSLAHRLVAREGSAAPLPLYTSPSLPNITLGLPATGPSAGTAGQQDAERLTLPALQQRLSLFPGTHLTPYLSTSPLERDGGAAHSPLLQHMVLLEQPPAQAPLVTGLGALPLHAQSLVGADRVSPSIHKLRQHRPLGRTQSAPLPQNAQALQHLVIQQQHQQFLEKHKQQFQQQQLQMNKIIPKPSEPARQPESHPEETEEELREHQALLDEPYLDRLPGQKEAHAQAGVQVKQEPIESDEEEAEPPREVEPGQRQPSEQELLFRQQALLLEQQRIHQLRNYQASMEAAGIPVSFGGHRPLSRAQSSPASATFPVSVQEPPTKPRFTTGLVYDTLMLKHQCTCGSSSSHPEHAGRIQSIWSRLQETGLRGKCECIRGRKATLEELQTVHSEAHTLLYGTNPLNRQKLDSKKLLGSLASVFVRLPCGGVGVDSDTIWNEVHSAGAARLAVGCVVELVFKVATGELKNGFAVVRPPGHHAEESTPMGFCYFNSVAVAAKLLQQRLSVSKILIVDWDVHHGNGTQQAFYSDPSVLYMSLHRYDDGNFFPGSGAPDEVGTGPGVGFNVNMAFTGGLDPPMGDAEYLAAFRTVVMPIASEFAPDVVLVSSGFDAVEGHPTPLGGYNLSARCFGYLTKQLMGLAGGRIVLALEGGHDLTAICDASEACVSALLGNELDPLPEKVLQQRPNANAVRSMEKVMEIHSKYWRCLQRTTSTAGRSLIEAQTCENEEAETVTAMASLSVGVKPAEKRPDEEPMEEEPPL
Chain of Histone deacetylase 9 (Homo sapiens) (Q9UKV0 whole entry): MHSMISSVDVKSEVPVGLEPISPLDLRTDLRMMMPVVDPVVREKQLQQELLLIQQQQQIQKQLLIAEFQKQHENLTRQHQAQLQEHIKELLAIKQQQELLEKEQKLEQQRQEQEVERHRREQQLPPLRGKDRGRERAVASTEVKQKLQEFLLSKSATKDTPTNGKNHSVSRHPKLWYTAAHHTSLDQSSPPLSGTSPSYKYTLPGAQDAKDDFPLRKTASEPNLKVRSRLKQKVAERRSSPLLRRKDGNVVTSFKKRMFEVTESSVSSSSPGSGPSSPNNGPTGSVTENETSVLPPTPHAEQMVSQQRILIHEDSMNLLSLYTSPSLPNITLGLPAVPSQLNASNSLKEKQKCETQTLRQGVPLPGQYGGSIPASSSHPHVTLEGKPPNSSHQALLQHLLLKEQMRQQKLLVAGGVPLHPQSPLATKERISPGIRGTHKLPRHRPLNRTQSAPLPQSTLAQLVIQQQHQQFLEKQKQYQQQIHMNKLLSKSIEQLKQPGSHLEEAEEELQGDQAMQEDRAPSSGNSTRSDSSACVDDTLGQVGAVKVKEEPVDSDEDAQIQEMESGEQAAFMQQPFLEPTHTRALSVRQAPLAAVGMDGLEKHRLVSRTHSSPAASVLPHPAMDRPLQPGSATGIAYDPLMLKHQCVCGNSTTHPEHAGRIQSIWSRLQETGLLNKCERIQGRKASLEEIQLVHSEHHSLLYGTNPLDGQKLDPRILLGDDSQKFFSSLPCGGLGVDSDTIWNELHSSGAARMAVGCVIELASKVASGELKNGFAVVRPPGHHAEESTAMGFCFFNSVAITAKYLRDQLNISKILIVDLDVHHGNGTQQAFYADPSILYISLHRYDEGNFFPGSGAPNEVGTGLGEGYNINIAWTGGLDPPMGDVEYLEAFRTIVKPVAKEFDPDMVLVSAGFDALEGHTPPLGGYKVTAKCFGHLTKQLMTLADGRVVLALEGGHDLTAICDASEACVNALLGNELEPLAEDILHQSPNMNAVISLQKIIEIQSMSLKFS

NC(=O)c1cccc2[nH]c(-c3ccc(NCc4ccc(C(=O)Nc5ccccc5N)cc4)cc3)nc12
Activity [1]: 94.7%
Activity (Histone deacetylase 1 [2]): 88.7%
Activity [3]: 111%
Activity [4]: 103%
Activity (HL-60 [5]): Dose-Dependent Effect
Activity (Histone deacetylase 1 [6]): 12.3%
Activity [7]: 101%
Activity (HL-60 [8]): Active
Activity (HL-60 [9]): inactive
Activity [10]: 84.9%
Activity [11]: 93.1%
Activity (Histone deacetylase 2 [12]): 98.2%
pIC50 (Histone deacetylase 2 [13]): 6.83
Activity [14]: 101%
Activity [15]: 82.1%
Activity [16]: 91.9%
Activity (HL-60 [17]): Active
